Reference: patent US11903387B2 (priority 2016, dated 2024)
Like-named read-outs stand apart in the source and are kept apart here.

Assays:
Phytophthora infestans = assay: whole plant or invertebrate; format: in vivo; conditions: for pest or weed control at 10 ppm: read-out: Test 1 preventive value, Measured, applied alone, 10 ppm; for pest or weed control at 50 ppm: read-out: Test 1 preventive value, Measured, applied alone, 50 ppm; for pest or weed control at 250 ppm: read-out: Test 1 preventive value, Measured, applied alone, 250 ppm; for pest or weed control at 200 ppm: read-out: Test 1 Measured, component (b) alone 200 ppm; for Test 1 preventive value, Measured: applied alone; for pest or weed control at 20 ppm: read-out: Test 1 Measured, component (b) alone 20 ppm; for pest or weed control at 100 ppm: read-out: Test 1 Measured, component (b) alone 100 ppm; for pest or weed control at 500 ppm: read-out: Test 1 Measured, component (b) alone 500 ppm
[1] = test system: Pseudoperonospora cubensis; assay: Test 2: control effect against cucumber downy mildew; format: in vivo; conditions: for pest or weed control at 200 ppm: component (b) alone 200 ppm; for pest or weed control at 20 ppm: component (b) alone 20 ppm; for pest or weed control at 100 ppm: component (b) alone 100 ppm; for pest or weed control at 500 ppm: component (b) alone 500 ppm
[2] = Phytophthora infestans, in Solanum lycopersicum
[3] = Pseudoperonospora cubensis, applied alone, 10 ppm, read-out: Test 2 preventive value, Measured
[4] = Pseudoperonospora cubensis, applied alone, 50 ppm, read-out: Test 2 preventive value, Measured
[5] = Pseudoperonospora cubensis, applied alone, 250 ppm, read-out: Test 2 preventive value, Measured
[6] = Pseudoperonospora cubensis, read-out: Test 2 Measured

Structure (SMILES): Cc1cc(C(F)(F)F)nn1CC(=O)N1CCC(c2nc(C3=NOC(c4c(F)cccc4F)C3)cs2)CC1 (stereo not drawn) [Oxathiapiprolin]
- Test 1 Measured (Phytophthora infestans; component (b) alone 0.0024 ppm): 60.2
- Test 1 Measured (Phytophthora infestans; component (b) alone 0.012 ppm): 95
- Test 1 Measured (Phytophthora infestans; component (b) alone 0.06 ppm): 100
- Test 2 Measured ([1]; component (b) alone 0.0024 ppm): 40
- Test 2 Measured ([1]; component (b) alone 0.012 ppm): 99
- Test 2 Measured ([1]; component (b) alone 0.06 ppm): 100

Structure (SMILES): CC(C)CC(C)c1sccc1NC(=O)c1cn(C)nc1C(F)(F)F (stereo not drawn) [Penthiopyrad]
- pest or weed control at 10 ppm (Phytophthora infestans; [2]): 0%
- pest or weed control at 50 ppm (Phytophthora infestans; [2]): 0%
- pest or weed control at 250 ppm (Phytophthora infestans; [2]): 0%
- pest or weed control at 10 ppm [1, 3]: 0%
- pest or weed control at 50 ppm [1, 4]: 0%
- pest or weed control at 250 ppm [1, 5]: 27.5%

Structure (SMILES): CCCOC(=O)NCCCN(C)C [Propamocarb]
- pest or weed control at 200 ppm (Phytophthora infestans; [2]): 5%
- pest or weed control at 1000 ppm (Phytophthora infestans; Phytophthora infestans, in Solanum lycopersicum, read-out: Test 1 Measured, component (b) alone 1000 ppm): 21.7%
- pest or weed control at 5000 ppm (Phytophthora infestans; Phytophthora infestans, in Solanum lycopersicum, read-out: Test 1 Measured, component (b) alone 5000 ppm): 48.3%
- pest or weed control at 200 ppm [1, 6]: 45%
- pest or weed control at 1000 ppm ([1]; Pseudoperonospora cubensis, component (b) alone 1000 ppm, read-out: Test 2 Measured): 97.5%
- pest or weed control at 5000 ppm ([1]; Pseudoperonospora cubensis, component (b) alone 5000 ppm, read-out: Test 2 Measured): 81.5%

Structure (SMILES): CCCC1COC(Cn2cncn2)(c2ccc(Cl)cc2Cl)O1 (stereo not drawn) [Propiconazole]
- pest or weed control at 8 ppm (Phytophthora infestans; Phytophthora infestans, in Solanum lycopersicum, read-out: Test 1 Measured, component (b) alone 8 ppm): 0%
- pest or weed control at 40 ppm (Phytophthora infestans; Phytophthora infestans, in Solanum lycopersicum, read-out: Test 1 Measured, component (b) alone 40 ppm): 35%
- pest or weed control at 200 ppm (Phytophthora infestans; [2]): 53.3%
- pest or weed control at 8 ppm ([1]; Pseudoperonospora cubensis, component (b) alone 8 ppm, read-out: Test 2 Measured): 0%
- pest or weed control at 40 ppm ([1]; Pseudoperonospora cubensis, component (b) alone 40 ppm, read-out: Test 2 Measured): 7.5%
- pest or weed control at 200 ppm [1, 6]: 57.5%

Structure (SMILES): COC(=O)NCc1cc(/C(C)=N/OCc2cccc(C)n2)ccc1Cl [Pyribencarb]
- pest or weed control at 10 ppm (Phytophthora infestans; [2]): 8.3%
- pest or weed control at 50 ppm (Phytophthora infestans; [2]): 11.7%
- pest or weed control at 250 ppm (Phytophthora infestans; [2]): 23.3%
- pest or weed control at 10 ppm [1, 3]: 0%
- pest or weed control at 50 ppm [1, 4]: 0%
- pest or weed control at 250 ppm [1, 5]: 10%

Structure (SMILES): COc1cc(C)c(C(=O)c2c(OC)ncc(Cl)c2C)c(OC)c1OC [Pyriofenone]
- Test 1 preventive value, Measured (Phytophthora infestans; 10 ppm): 0.0
- Test 1 preventive value, Measured (Phytophthora infestans; 50 ppm): 0.0
- Test 1 preventive value, Measured (Phytophthora infestans; 250 ppm): 0.0
- Test 2 Measured ([1]; component (b) alone 250 ppm): 10
- Test 2 Measured ([1]; component (b) alone, 10 ppm): 0
- Test 2 Measured ([1]; component (b) alone, 50 ppm): 5

Structure (SMILES): Fc1ccc(Oc2ccnc3cc(Cl)cc(Cl)c23)cc1 [Quinoxyfen]
- pest or weed control at 10 ppm (Phytophthora infestans; [2]): 0%
- pest or weed control at 50 ppm (Phytophthora infestans; [2]): 0%
- pest or weed control at 250 ppm (Phytophthora infestans; [2]): 0%
- pest or weed control at 250 ppm ([1]; Pseudoperonospora cubensis, component (b) alone 250 ppm, read-out: Test 2 Measured): 0%
- pest or weed control at 10 ppm ([1]; Pseudoperonospora cubensis, component (b) alone, 10 ppm, read-out: Test 2 Measured): 0%
- pest or weed control at 50 ppm ([1]; Pseudoperonospora cubensis, component (b) alone, 50 ppm, read-out: Test 2 Measured): 0%

Structure (SMILES): CC(C)(C)C(O)(CCc1ccc(Cl)cc1)Cn1cncn1 (stereo not drawn) [Tebuconazole]
- pest or weed control at 20 ppm (Phytophthora infestans; [2]): 0%
- pest or weed control at 100 ppm (Phytophthora infestans; [2]): 0%
- pest or weed control at 500 ppm (Phytophthora infestans; [2]): 16.7%
- pest or weed control at 20 ppm [1, 6]: 0%
- pest or weed control at 100 ppm [1, 6]: 10%
- pest or weed control at 500 ppm [1, 6]: 97%

Structure (SMILES): CC(=O)Oc1c(C)c(C)nc2c(F)cc(C(C)(C)C)cc12 [Tebufloquin]
- Test 1 Measured (Phytophthora infestans; component (b) alone 4 ppm): 0.0
- Test 1 Measured (Phytophthora infestans; component (b) alone, 20 ppm): 0.0
- Test 1 Measured (Phytophthora infestans; component (b) alone, 100 ppm): 46.7
- Test 2 Measured ([1]; component (b) alone 4 ppm): 0
- Test 2 Measured ([1]; component (b) alone, 20 ppm): 0
- Test 2 Measured ([1]; component (b) alone, 100 ppm): 0

Structure (SMILES): COC(=O)NC(=S)Nc1ccccc1NC(=S)NC(=O)OC [Thiophanate-methyl]
- pest or weed control at 20 ppm (Phytophthora infestans; [2]): 0%
- pest or weed control at 500 ppm (Phytophthora infestans; [2]): 60%
- pest or weed control at 20 ppm [1, 6]: 0%
- pest or weed control at 100 ppm [1, 6]: 0%
- pest or weed control at 500 ppm [1, 6]: 2.5%

Structure (SMILES): Cc1cccc2sc3nncn3c12 [Tricyclazole]
- pest or weed control at 20 ppm (Phytophthora infestans; [2]): 0%
- pest or weed control at 100 ppm (Phytophthora infestans; [2]): 0%
- pest or weed control at 500 ppm (Phytophthora infestans; [2]): 70%
- pest or weed control at 20 ppm [1, 6]: 0%
- pest or weed control at 100 ppm [1, 6]: 0%
- pest or weed control at 500 ppm [1, 6]: 22.5%

Structure (SMILES): CON=C(C(=O)OC)c1ccccc1CON=C(C)c1cccc(C(F)(F)F)c1 [Trifloxystrobin]
- pest or weed control at 50 ppm (Phytophthora infestans; [2]): 28.3%
- pest or weed control at 10 ppm [1, 3]: 0%
- pest or weed control at 50 ppm [1, 4]: 0%
- pest or weed control at 250 ppm [1, 5]: 0%
